In patent US20240158393A1, “PYRIDONE COMPOUNDS AND METHODS OF USE” (Exelixis, Inc., priority 2021, published 2024):
Structures can show the parent of a compound that is named as a salt.

Assays:
Human Mer = target: T1, Human Mer (Homo sapiens, UniProt Q12866); experiment: Human Mer kinase assay (33P radiometric / HTRF KinEase); format: biochemical; conditions: protocols of Examples C-1 and/or C-2
T1 construct: Human Mer (residues R557-E882 with H628Q and R794A, 0.7 nM); purchased Eurofins Pharma Discovery Services UK Limited (KinaseProfiler service)
T1 sequence (Q12866 557-882 limits assumed): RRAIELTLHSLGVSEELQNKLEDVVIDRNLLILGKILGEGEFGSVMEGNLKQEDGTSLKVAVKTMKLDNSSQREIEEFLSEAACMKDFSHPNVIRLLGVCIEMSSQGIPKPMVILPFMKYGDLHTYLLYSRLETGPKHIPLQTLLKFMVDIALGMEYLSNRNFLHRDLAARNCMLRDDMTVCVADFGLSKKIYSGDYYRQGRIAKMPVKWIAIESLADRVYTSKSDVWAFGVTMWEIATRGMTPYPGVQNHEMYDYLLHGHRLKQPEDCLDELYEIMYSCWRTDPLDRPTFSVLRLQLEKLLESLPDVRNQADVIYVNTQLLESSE
In short: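 Two formats yield IC50 values. HTRF KinEase used MER residues 528-999 with ATP at Km (40 μM), 1 μM biotin-peptide, 60 min RT, […], 10 concentrations. 33P filter assay used 0.7 nM Mer R557-E882 (H628Q/R794A), 10 μM ATP, 250 μM peptide, 40 min RT, top 1 μM.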

Human Met = target: T2, Human Met (Homo sapiens, UniProt P08581); experiment: Human Met kinase assay (33P radiometric / HTRF KinEase); format: biochemical; conditions: protocols of Examples D-1 and/or D-2; read-out: c-Met IC50
T2 construct: Human MET (residues 956-1390)
In short: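 Two formats gave IC50s by curve fitting. HTRF KinEase used MET residues 956-1390 with 1 μM biotin-peptide and 3.0 μM ATP (Km) for 40 min at room temperature, ten doses in 3% DMSO, 665/620 nm read. The 33P transfer assay used mutant Met R974-S1390 A1209G/V1290L (3.4 nM), 10 μM ATP, 250 μM peptide, pH 7.0, 40 min, nine doses from 1 μM.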

T2 sequence (P08581 974-1390 limits assumed): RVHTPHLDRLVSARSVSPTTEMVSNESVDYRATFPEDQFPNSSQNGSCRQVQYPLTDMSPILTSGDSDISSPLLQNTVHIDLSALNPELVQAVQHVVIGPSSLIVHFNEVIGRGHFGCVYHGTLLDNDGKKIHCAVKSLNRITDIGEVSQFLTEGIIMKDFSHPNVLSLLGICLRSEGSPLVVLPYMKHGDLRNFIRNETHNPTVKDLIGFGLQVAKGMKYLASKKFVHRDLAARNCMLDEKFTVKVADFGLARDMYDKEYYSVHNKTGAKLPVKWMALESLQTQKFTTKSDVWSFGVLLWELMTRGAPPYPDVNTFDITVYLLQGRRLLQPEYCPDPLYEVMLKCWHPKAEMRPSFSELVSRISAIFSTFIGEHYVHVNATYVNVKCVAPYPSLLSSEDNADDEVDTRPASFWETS

| Structure (SMILES) | IC50 (Human Mer) | IC50 (Human Met) |
| --- | --- | --- |
| COCCOc1cnc2c(Oc3ccc(NC(=O)c4c(C)n(C)c(C)c(C5=CCCC5)c4=O)cc3F)ccnc2c1 [Compound 65, 5-(Cyclopenten-1-yl)-N-[3-fluoro-4-[[7-(2-methoxyethoxy)-1,5-naphthyridin-4-yl]oxy]phenyl]-1,2,6-trimethyl-4-oxopyridine-3-carboxamide] | ≤ 100 nM | ≤ 100 nM |
| COCCOc1cnc2c(Oc3ccc(NC(=O)c4c(C)n(C)c(C)c(C5=CCCCC5)c4=O)cc3F)ccnc2c1 [Compound 66, 5-(Cyclohexen-1-yl)-N-[3-fluoro-4-[[7-(2-methoxyethoxy)-1,5-naphthyridin-4-yl]oxy]phenyl]-1,2,6-trimethyl-4-oxopyridine-3-carboxamide] | ≤ 100 nM | ≤ 100 nM |
| COc1nc2c(Oc3ccc(NC(=O)c4c(C)n(C)c(C)c(C5=CCCC5)c4=O)cc3F)ccnc2cc1OCCC1CCC1 [Compound 74, N-[4-[[7-(2-Cyclobutylethoxy)-6-methoxy-1,5-naphthyridin-4-yl]oxy]-3-fluorophenyl]-5-(cyclopenten-1-yl)-1,2,6-trimethyl-4-oxopyridine-3-carboxamide] | ≤ 100 nM | ≤ 100 nM |
| COc1cc2nccc(Oc3ccc(NC(=O)c4cnc(C)c(C5=CCCC5)c4O)cc3F)c2nc1OC [Compound G1-2, 5-(Cyclopenten-1-yl)-N-[4-[(6,7-dimethoxy-1,5-naphthyridin-4-yl)oxy]-3-fluorophenyl]-4-hydroxy-6-methylpyridine-3-carboxamide hydrochloride] | ≤ 100 nM | ≤ 100 nM |
| COc1cc2nccc(Oc3ccc(NC(=O)c4cnc(C)c(C5=CCCCC5)c4O)cc3F)c2nc1OC [Compound G1-3, 5-(Cyclohexen-1-yl)-N-[4-[(6,7-dimethoxy-1,5-naphthyridin-4-yl)oxy]-3-fluorophenyl]-4-hydroxy-6-methylpyridine-3-carboxamide] | ≤ 100 nM | ≤ 100 nM |
| COc1cc2nccc(Oc3ccc(NC(=O)c4c5n(cc(C6=CCCCC6)c4=O)CCOC5)cc3F)c2nc1OC [Compound G1-4, 7-(Cyclohexen-1-yl)-N-[4-[(6,7-dimethoxy-1,5-naphthyridin-4-yl)oxy]-3-fluorophenyl]-8-oxo-3,4-dihydro-1H-pyrido[2,1-c][1,4]oxazine-9-carboxamide] | ≤ 100 nM | ≤ 100 nM |

Now from value to compound:

| IC50 (Human Mer) | IC50 (Human Met) | Structure (SMILES) |
| --- | --- | --- |
| ≤ 100 nM | > 300 nM | C=C(C)c1c(C)n(C)c(C)c(C(=O)Nc2ccc(Oc3ccnc4cc(OC)c(OC)nc34)c(F)c2)c1=O [Compound 52, N-[4-[(6,7-Dimethoxy-1,5-naphthyridin-4-yl)oxy]-3-fluorophenyl]-1,2,6-trimethyl-4-oxo-5-prop-1-en-2-ylpyridine-3-carboxamide] |
| ≤ 100 nM | ≤ 100 nM | COc1cc2nccc(Oc3ccc(NC(=O)c4c(C)n(C)c(C)c(C5=CCOCC5)c4=O)cc3F)c2nc1OC [Compound 53, 5-(3,6-Dihydro-2H-pyran-4-yl)-N-[4-[(6,7-dimethoxy-1,5-naphthyridin-4-yl)oxy]-3-fluorophenyl]-1,2,6-trimethyl-4-oxopyridine-3-carboxamide] |
| ≤ 100 nM | 100 to 300 nM | COCCOc1cc2nccc(Oc3ccc(NC(=O)c4c(C)n(C)c(C)c(/C=C/C5CCCC5)c4=O)cc3F)c2nc1OC [Compound 54, 5-[(E)-2-Cyclopentylethenyl]-N-[3-fluoro-4-[[6-methoxy-7-(2-methoxyethoxy)-1,5-naphthyridin-4-yl]oxy]phenyl]-1,2,6-trimethyl-4-oxopyridine-3-carboxamide] |
| ≤ 100 nM | > 300 nM | C=C(C)c1c(C)n(C)c(C)c(C(=O)Nc2ccc(Oc3ccnc4cc(OC)c(OC)nc34)cc2)c1=O [Compound 55, N-[4-[(6,7-Dimethoxy-1,5-naphthyridin-4-yl)oxy]phenyl]-1,2,6-trimethyl-4-oxo-5-prop-1-en-2-ylpyridine-3-carboxamide] |
| ≤ 100 nM | ≤ 100 nM | COCCOc1cc2nccc(Oc3ccc(NC(=O)c4c(C)n(C)c(C)c(C5=CCCCC5)c4=O)cc3F)c2nc1OC [Compound 58, 5-(Cyclohexen-1-yl)-N-[3-fluoro-4-[[6-methoxy-7-(2-methoxyethoxy)-1,5-naphthyridin-4-yl]oxy]phenyl]-1,2,6-trimethyl-4-oxopyridine-3-carboxamide] |
| ≤ 100 nM | ≤ 100 nM | COc1cc2nccc(Oc3ccc(NC(=O)c4c5n(c(C)c(C6=CCOCC6)c4=O)CCOC5)cc3)c2nc1OC [Compound 73, 7-(3,6-Dihydro-2H-pyran-4-yl)-N-[4-[(6,7-dimethoxy-1,5-naphthyridin-4-yl)oxy]phenyl]-6-methyl-8-oxo-3,4-dihydro-1H-pyrido[2,1-c][1,4]oxazine-9-carboxamide] |
